From US20230010299A1, “HETEROCYCLIC TRPML1 AGONISTS” (LIBRA THERAPEUTICS, INC., priority 2019, published 2023) come the findings set out here.

The experiment deals with T1, TRPML1 (Homo sapiens, UniProt Q9GZU1).
T1 construct: expressed in transfected cells
In words: Cellular TRPML1 assay (FLIPR TETRA, GCaMP6f calcium read-out). The class given is cell-based. The note with it: HEK T-REx/GCaMP6f/TRPML1 cells; Ca2+ response over 300 s, normalized to ML-SA1 50 μM; Ca2+ free or Optimem condition not given; read-out: Ec50 (Activity of TRPML1 agonists). The procedure:
Buffers and reagents • PBS (D-PBS without calcium and magnesium; EuroClone) • Trypsin (Trypsin 0.05%, EDTA 0.02% in PBS; EuroClone) • DMSO (Sigma) • Ca^2+ free Tyrode's buffer: in-house solution (130 mM NaCl, 5 mM KCl, 1 mM MgCl2, 5 mM NaHCO3, 20 mM HEPES in water at pH 7.4; sterile filtered). • Opti-MEM (Gibco) • Agonist: ML-SA1 (Sigma); stock: 60 mM in DMSO, stored at −20° C. • Blocker: ML-SI3 (in house synthesis); stock: 20 mM in DMSO, stored at −20° C.
The final clone for the TRPML1 assay is HEK T-REx/GCaMP6f/TRPML1.
GCaMP6f is a genetically encoded calcium indicator that is stably expressed in this cell line and used as a fluorescent read-out.
Experiments are performed in 384 MTP format. Cells are seeded at 15000 cells/well either in 25 μl/well of growth medium or in 20 μl/well of Optimem+0.5% FBS without selection antibiotics. Twenty-four hours later, cells are assayed for the response to various compounds using the Ca^2+ sensitive GCaMP6f protein stably expressed in the cells as readout.
The experiment is performed in a 384-well format according to the following procedures for either Ca^2+ free or Optimem conditions: • Ca^2+ free condition (in absence of extracellular Ca^2+): • 24 h after seeding, pre-incubate the cells at room temperature for about 10′. • Then remove the culture medium and replace it with 20 μL of Ca^2+ free Tyrode's buffer. • Start the experiment at the FLIPR^TETRA by injecting 10 μL/w of 3× concentrated test compounds and controls in Ca^2+ free Tyrode's buffer. Monitor the kinetic response over a period of 300 seconds. • Final DMSO concentration: 0.5% • Optimem condition (in presence of extracellular Ca^2+): • 24 h after seeding, pre-incubate the cells at room temperature for about 10′. • Start the experiment at the FLIPR^TETRA by injecting 10 μL/w of 3× concentrated test compounds and controls in Ca^2+ free Tyrode's buffer. Monitor the kinetic response over a period of 300 seconds. • Final DMSO concentration: 0.5%
Data from FLIPR^TETRA measurements are analyzed with the Genedata Screener® software.
Stimulator controls (Col 2): injection of ML-SA1 EC100 (50 μM) in alternated wells positions
Neutral controls (Col 2): injection of 0 mM Ca^2+ free Tyrode's buffer in alternated wells positions.
Test wells (Col 3-22): test compounds dose response curve from either 100 μM with 1:2 dilution steps or from 50 μM with 1:3.16 dilution steps.

T1 sequence (Q9GZU1 whole entry): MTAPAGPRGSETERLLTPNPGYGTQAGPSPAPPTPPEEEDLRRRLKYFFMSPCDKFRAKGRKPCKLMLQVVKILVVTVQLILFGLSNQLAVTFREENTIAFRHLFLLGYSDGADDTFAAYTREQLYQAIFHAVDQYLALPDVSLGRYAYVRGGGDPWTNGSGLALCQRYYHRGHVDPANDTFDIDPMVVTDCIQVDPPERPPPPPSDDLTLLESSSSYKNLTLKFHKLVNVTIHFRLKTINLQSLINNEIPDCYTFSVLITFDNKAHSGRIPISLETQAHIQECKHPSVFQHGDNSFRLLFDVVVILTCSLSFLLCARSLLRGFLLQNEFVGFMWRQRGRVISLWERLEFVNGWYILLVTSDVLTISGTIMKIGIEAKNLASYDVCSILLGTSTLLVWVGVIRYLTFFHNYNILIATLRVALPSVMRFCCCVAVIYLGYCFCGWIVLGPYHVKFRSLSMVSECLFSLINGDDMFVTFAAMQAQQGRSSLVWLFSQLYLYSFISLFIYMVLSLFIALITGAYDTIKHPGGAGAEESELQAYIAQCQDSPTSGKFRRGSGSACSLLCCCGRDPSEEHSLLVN

As usually defined, the EC50 is the concentration needed to bring the measured effect to its halfway point. For `CN(C)S(=O)(=O)c1ccc(S(=O)(=O)NC2CCCCC2N2CCC(c3ccccc3)CC2)cc1` (centres unmarked) [Example 55, N1,N1-dimethyl-N4-[2-(4-phenylpiperidin-1-yl)cyclohexyl]benzene-1,4-disulfonamide], the EC50 came to 6.1 µM.

As to `CN(C)S(=O)(=O)c1ccc(S(=O)(=O)NC2CCCCC2N2CCOCC2)cc1` (centres unmarked) [Example 61, N1,N1-dimethyl-N4-[2-(morpholin-4-yl)cyclohexyl]benzene-1,4-disulfonamide], the concentration for a half-maximal effect (EC50) turned out to be 39.5 µM.

Turning to `CN(C)S(=O)(=O)c1ccc(CC(=O)Nc2ccccc2N2CCCC2)cc1` [Example 7, 2-[4-(dimethylsulfamoyl)phenyl]-N-[2-(pyrrolidin-1-yl)phenyl]acetamide], the concentration giving a half-maximal response (EC50) came out at 85.4 µM.

For `CC(C)N(C(=O)c1ccc(S(C)(=O)=O)cc1)c1ccccc1N1CCC(Oc2cnccn2)CC1` [Example 103, N-isopropyl-4-(methylsulfonyl)-N-(2-(4-(pyrazin-2-yloxy)piperidin-1-yl)phenyl)benzamide], the EC50 amounted to 14.8 µM.

As to `O=S(=O)(Nc1ccccc1N1CCCCC1)c1sccc1C1OCCO1` [Example 11, 3-(1,3-dioxolan-2-yl)-N-[2-(piperidin-1-yl)phenyl]thiophene-2-sulfonamide], the half-maximal effective concentration (EC50) worked out at 33.5 µM.

On to `CC(C)(C)c1ccc(S(=O)(=O)Nc2ccccc2N2CC3CCC2C3)s1` (centres unmarked) [Example 16, N-(2-{2-azabicyclo[2.2.1]heptan-2-yl}phenyl)-5-tert-butylthiophene-2-sulfonamide], for which the 50% effective concentration (EC50) is 14.6 µM.

Regarding `CN(C)c1ccccc1NS(=O)(=O)c1ccc(S(=O)(=O)N(C)C)cc1` [Example 3, N4-[2-(dimethylamino)phenyl]-N1,N1-dimethylbenzene-1,4-disulfonamide], the EC50 turned out to be 50.2 µM.

With `Cc1ccc(S(=O)(=O)Nc2ccccc2N2CCN(C(=O)OC(C)(C)C)CC2)cc1C` [Example 51, tert-butyl 4-(2-((3,4-dimethylphenyl)sulfonamido)phenyl)piperazine-1-carboxylate], the concentration for a half-maximal effect (EC50) stood at 3 µM.

Regarding `Cc1cc(S(=O)(=O)Nc2ccccc2N2CCC(Oc3ccccn3)CC2)c(C)s1` [Example 97, 2,5-dimethyl-N-(2-(4-(pyridin-2-yloxy)piperidin-1-yl)phenyl)thiophene-3-sulfonamide], the EC50 came to 2.8 µM.

Consider `CN(C(=O)c1ccc(S(=O)(=O)N(C)C)cc1)c1ccccc1N1CC2CCC1C2` (centres unmarked) [Example 49, N-(2-{2-azabicyclo[2.2.1]heptan-2-yl}phenyl)-4-(dimethylsulfamoyl)-N-methylbenzamide], for which the EC50 was 29.3 µM.

`CCCN(C)C(=O)C1CCN(c2ccccc2NS(=O)(=O)c2ccc(S(=O)(=O)N(C)C)cc2)CC1` [Example 14, 1-(2-((4-(N,N-dimethylsulfamoyl)phenyl)sulfonamido)phenyl)-N-methyl-N-propylpiperidine-4-carboxamide]: the EC50 is 19.7 µM.

`CC(C)Oc1ccc(S(=O)(=O)Nc2ccccc2N2CCCCC2)cc1` [Example 39, 4-isopropoxy-N-(2-(piperidin-1-yl)phenyl)benzenesulfonamide]: the concentration giving a half-maximal response (EC50) was found to be 54.5 µM.

For the compound `Cc1noc(C)c1S(=O)(=O)Nc1ccccc1N1CCN(C(=O)OC(C)(C)C)CC1` [Example 64, tert-butyl 4-(2-((3,5-dimethylisoxazole)-4-sulfonamido)phenyl)piperazine-1-carboxylate], the EC50 is 36.4 µM.

For the compound `CN1CCc2cc(S(=O)(=O)Nc3ccccc3N3CCN(C(=O)OC(C)(C)C)CC3)ccc21` [Example 72, tert-butyl 4-(2-((l-methylindoline)-5-sulfonamido)phenyl)piperazine-1-carboxylate], the EC50 turned out to be 3 µM.

`Cc1cc(C)cc(S(=O)(=O)Nc2ccccc2N2CCN(C(=O)OC(C)(C)C)CC2)c1` [Example 54, tert-butyl 4-(2-((3,5-dimethylphenyl)sulfonamido)phenyl)piperazine-1-carboxylate]: the EC50 was 20 µM.

Consider `CC(C)c1ccc(S(=O)(=O)Nc2ccccc2N2CCC(C(=O)OC(C)(C)C)CC2)cc1` [Example 29, tert-butyl 1-(2-((4-isopropylphenyl)sulfonamido)phenyl)piperidine-4-carboxylate], for which the EC50 is 2.3 µM.

As to `Cc1ccc(S(=O)(=O)Nc2ccccc2N2CCC(Oc3ccccn3)CC2)cn1` [Example 98, 6-methyl-N-(2-(4-(pyridin-2-yloxy)piperidin-1-yl)phenyl)pyridine-3-sulfonamide], the EC50 came to 3.3 µM.

With `CN(C(=O)c1ccc(S(=O)(=O)N(C)C)cc1)c1ccccc1N1CCN(C(=O)OC(C)(C)C)CC1` [Example 5, tert-butyl 4-(2-(4-(N,N-dimethylsulfamoyl)-N-methylbenzamido)phenyl)piperazine-1-carboxylate], the EC50 worked out at 6 µM.

As to `O=S(=O)(Nc1ccccc1N1CCCCC1)c1cc2ccccc2s1` [Example 1, N-[2-(piperidin-1-yl)phenyl]-1-benzothiophene-2-sulfonamide], the EC50 turned out to be 91.1 µM.

Take `CCCOC1CCN(c2ccccc2NS(=O)(=O)c2cc(C)oc2C)CC1` [Example 67, 2,5-dimethyl-N-(2-(4-propoxypiperidin-1-yl)phenyl)furan-3-sulfonamide]: the half-maximal effective concentration (EC50) was 37.8 µM.

Regarding `CN(C)S(=O)(=O)c1ccc(S(=O)(=O)Nc2ccccc2N2CCOC(c3ccccc3)C2)cc1` (centres unmarked) [Example 100, N1,N1-dimethyl-N4-(2-(2-phenylmorpholino)phenyl)benzene-1,4-disulfonamide], the 50% effective concentration (EC50) came to 6.8 µM.

`Cc1cc(S(=O)(=O)Nc2ccccc2N2CCN(C(=O)OC(C)(C)C)CC2)c(C)s1` [Example 59, tert-butyl 4-(2-((2,5-dimethylthiophene)-3-sulfonamido)phenyl)piperazine-1-carboxylate]: the concentration for a half-maximal effect (EC50) worked out at 1.6 µM.

As to `CCCOC1CCN(c2ccccc2NS(=O)(=O)c2ccc(C)cc2C)CC1` [Example 66, 2,4-dimethyl-N-(2-(4-propoxypiperidin-1-yl)phenyl)benzenesulfonamide], the half-maximal effective concentration (EC50) worked out at 22.1 µM.

Consider `CN(C)S(=O)(=O)c1ccc(S(=O)(=O)Nc2ccccc2N2CCc3ccccc32)cc1` [Example 8, N4-[2-(2,3-dihydro-1H-indol-1-yl)phenyl]-N1,N1-dimethylbenzene-1,4-disulfonamide], for which the concentration giving a half-maximal response (EC50) amounted to 64 µM.

Regarding `Cc1nc(C)c(S(=O)(=O)Nc2ccccc2N2CCN(C(=O)OC(C)(C)C)CC2)s1` [Example 56, tert-butyl 4-(2-((2,4-dimethylthiazole)-5-sulfonamido)phenyl)piperazine-1-carboxylate], the EC50 stood at 3.6 µM.

Consider `Cc1ccc(S(=O)(=O)Nc2ccccc2N2CCN(C(=O)OC(C)(C)C)CC2)c(C)c1` [Example 50, tert-butyl 4-(2-((2,4-dimethylphenyl)sulfonamido)phenyl)piperazine-1-carboxylate], for which the EC50 worked out at 2.2 µM.

`CN(C)S(=O)(=O)c1ccc(S(=O)(=O)Nc2ccccc2N2CCN(C(=O)Cc3cccs3)CC2)cc1` [Example 81, N1,N1-dimethyl-N4-(2-{4-[2-(thiophen-2-yl)acetyl]piperazin-1-yl}phenyl)benzene-1,4-disulfonamide]: the EC50 turned out to be 11.1 µM.

Take `Cc1ccc(S(=O)(=O)Nc2ccccc2N2CCN(C(=O)OC(C)(C)C)CC2)c2cccnc12` [Example 95, tert-butyl 4-(2-((8-methylquinoline)-5-sulfonamido)phenyl)piperazine-1-carboxylate]: the EC50 was determined as 10.7 µM.

Take `CN(C)S(=O)(=O)c1ccc(S(=O)(=O)Nc2ccccc2N2CCC(c3ccccc3)C2)cc1` (centres unmarked) [Example 37, N1,N1-dimethyl-N4-[2-(3-phenylpyrrolidin-1-yl)phenyl]benzene-1,4-disulfonamide]: the EC50 is 6.3 µM.

With `COC1CCCN(c2ccccc2NS(=O)(=O)c2ccc(S(=O)(=O)N(C)C)cc2)C1` (centres unmarked) [Example 36, N4-[2-(3-methoxypiperidin-1-yl)phenyl]-N1,N1-dimethylbenzene-1,4-disulfonamide], the EC50 turned out to be 7.3 µM.

Turning to `CN(C)c1ccc(S(=O)(=O)Nc2ccccc2N2CCCCC2)cc1` [Example 2, 4-(dimethylamino)-N-[2-(piperidin-1-yl)phenyl]benzene-1-sulfonamide], the 50% effective concentration (EC50) was determined as 58.9 µM.

In the case of `CC(C)Oc1ccc(S(=O)(=O)Nc2ccccc2N2CCC(C(=O)OC(C)(C)C)CC2)cc1` [Example 31, tert-butyl 1-(2-((4-isopropoxyphenyl)sulfonamido)phenyl)piperidine-4-carboxylate], the EC50 was found to be 6 µM.
